The test system of one data set is GAPDH. As to the kind of experiment: GAPDH gene knockdown in MG63 cells by RT-PCR. In kind it is cell-based, human. The following applies: MG63 cells; for GAPDH gene knockdown: 50 nM, 24 h. Here is the method:
At 70% confluency, a day prior to transfection, the cells were seeded at a density of 35 000 cells in a 24-well cell culture plate to achieve 60-80% confluence at the day of transfection. Cell penetrating siRNAs (cpRNAs) of different lengths were transfected at 50 nM concentrations with Magnet Assisted Transfection (MATra-si) reagent for siRNAs (IBA GmbH, Göttingen, Germany) according to the manufacturers' protocols. Briefly, the siRNA was mixed with MATra-si reagent composed of supermagnetic ironoxide nanoparticles and incubated for 20 min. A complex was formed which was added to the cells to be transfected. A strong magnetic force was applied beneath the cells for 15 min. This forced the complex to be drawn into the cells by the magnetic field, and as a result the siRNA was delivered directly into the cytosol. For carrier free transfection experiments, cpRNAs were simply added to cells lines MG63, HOB, HCT116, fibroblasts and keratinocytes at 50 nM concentrations. Cells were also transfected with negative control siRNA (scrambled sequence) and cells left untreated were taken as controls. Each transfection was performed in triplicate. Post transfection, cells were incubated for 24 hours.
For the experiments involving lysosomotropic agent chloroquine (CQ), CQ was first neutralized to pH 7.4 using 1 M NaOH prior to use. MG63 cells were transfected with dT2, dT5, dT8, (dT5)2, as(dT5), and bl(dT5) siRNA in presence or absence of 100 μM CQ or using MATra-si and incubated for 24 h. Similar experiments were performed for other cpRNAs namely, dA5, dT5, dG5, (dT5)2, rA5 and dC5. For the control experiment, cells were either left untreated or transfected with negative control siRNA (scrambled sequence). Each transfection experiment was performed in triplicate.
After performing transfection experiments for 24 h, 48 h and 72 h respectively, total RNA was isolated from cells by adding 500 μl of lysis buffer (Qiagen, Germany), followed by homogenization of cell lysates using QIAshredder (Qiagen, Germany). RNA was extracted from cell lysates by RNeasy Mini Kit (Qiagen, Germany). All RNA samples were treated with DNase using TURBO-DNAfree (Ambion, USA). Agilent 2100 BioAnalyzer (Agilent Technologies, Palo Alto, Calif.) was used to confirm high quality of all RNA samples, which reports an RNA Integrity Number (RIN) that takes into account the entire electrophoretic RNA trace produced in the analysis. A RIN of greater than or equal to seven indicates the RNA is suitable for high stringency applications.
cDNA synthesis was performed in triplicate using total RNA reverse transcribed using High Capacity cDNA reverse transcription kit (Applied Biosystems, USA), with non-template control added to ensure a lack of signal in assay background. Reactions were incubated on a 96-well Applied Biosystems 9800 Fast Thermal Cycler PCR System at 37° C. for 60 min followed by 95° C. for 5 min. The real-time PCR reactions were carried out with 10 μl of 2×TaqMan® Universal PCR Master Mix, no AmpErase® UNG (Applied Biosystems, USA), 9 μl diluted cDNA, and 1 μl of TaqMan gene specific assay mix in a 20 μl final reaction volume. Reference gene beta-actin (ACTB) (Applied Biosystems, USA) was selected as control for normalization of TaqMan data. The assay included a no-template control, a standard curve of five serial dilution points (in steps of 3-fold) of cDNA mixture. Probes specific for IFN-α (Hs01022060_m1), IFN-β (Hs01077958_s1), IFN-γ (Hs00985251_m1), ACTB(Hs01060665_g1) and GAPDH (Hs02758991_g1) were purchased from Applied Biosystems. The amplification was carried out using the 7500 Fast Real-Time PCR System (Applied Biosystems, USA) using a 40-cycle program. The 7500 software automatically calculates raw Ct (cycle threshold) values. Data from samples with a Ct value equal to or below 35 were further analyzed. […]

Data set [1] in a line: Thermal denaturation (Tm) of siRNA duplexes. The following applies: for Tm: 7.5 mM phosphate buffer pH 7.0 containing 140 mM KCl, 1 μM strands, 40-95° C.; for Δ Tm: Tm relative to canonical siRNA (dT2); for drop in Tm: as compared to canonical siRNA. In kind it is physicochemical. As to the method:
Thermal denaturation studies of siRNA was carried out in phosphate buffer, pH 7.0, containing 140 mM KCl. UV absorbance was monitored at 260 nm in the temperature range from 40 to 95° C. using a Lambda 35 UV-Vis spectrophotometer equipped with a Peltier temperature programmer with a heating rate of 0.5° C./min. Samples (1 μM RNA) were denatured at 90° C. for 3 min followed by slow cooling to 27° C. prior to the measurements. Tm values were obtained from the maxima of the first derivatives of the melting curves. All Tm values given are the averages of three independent sets of experiments (±0.3° C. error range).

For the next data set, the system named is Ctnnb1 (β-Catenin). As to the kind of experiment: Ctnnb1 expression in MC3T3-E1 cells by quantitative RT-PCR. In kind it is cell-based, mouse. As to the method:
MC3T3-E1 cells were cultured in α-MEM (Sigma-Aldrich, Haverhill, UK) medium containing 10% FBS, 1% L-Glutamine, and 1% antibiotics (PeSt) at 37° C. with 5% CO2. One day prior to the miRNA treatment, 35,000 cells were plated per each well of a 24-well plate. On the experiment day, cells were replaced with 2% heat inactivated-FBS containing α-MEM medium with 1% L-Glutamine, and 1% antibiotics (PeSt). miR-34a-CP (final concentration: 50 nM) was given to the each well. Mirvana scrambled miRNA mimic was used as a negative control.
After 24 hours of transfection, and incubation, RNA extraction was performed by using miRCURY RNA Isolation Kit—Cell and Plant (#300100) and protocol from Exiqon, Vedbæk, Denmark. RNA samples were treated with DNase for 30 minutes at 37 degrees, thereafter inactivated with a DNase inactivation solution (TUTRBO DNase AM2238 thermofisher). Thereafter, RNA concentrations were measured using NanoDrop ND-1000 from NanoDrop Technologies, Wilmington, Del.
The cDNA was made from the total RNA using High Capacity cDNA reverse transcription kit (Applied Biosystems, USA). Reactions were performed on a 96-well Bio-Rad Thermal Cycler PCR System at 37° C. for 60 minutes, and at 95° C. for 5 min respectively. Real-time PCR reactions were performed as follows: 10 μl of 2×TaqMan® Universal PCR Master Mix, no AmpErase® UNG (Applied Biosystems, USA), 9 μl 1:5 diluted cDNA, and 1 μl of TaqMan gene specific assay mix. Final volume of the reaction mix was 20 uL. Internal control gene beta-actin (ACTB) (Applied Biosystems, USA) was selected as control for normalization of TaqMan data. The qRT-PCR reaction comprised a non-template control of cDNA in order to rule out any non-specific reading. Taqman probes for Ctnnb1, Sox9, Actb, were obtained from Applied Biosystems. The qRT-PCR amplification was carried out using the Bio-Rad qRT-PCR Thermocycler.
In order to achieve the transfection reagent free delivery of therapeutically potential microRNAs, we tested miR-34a and compared with miR-34a-CP. Since microRNAs unlike siRNAs have multiple targets in the cell, and there is a necessity to reduce the off-target and undesirable effects if any, we have also designed siRNA model siR-34a-CP as stated above. We have used mouse preosteoblast cell line MC3T3-E1 obtained from calvarial bone for the in-vitro functional validation of cell-penetrating molecules. On the day before transfection experiment, 35000 MC3T3-E1 cells were cultured per each well of the 24-well culture plate in alpha-Minimum Essential Medium with 10% heat inactivated FBS, 1% L-Glutamine, 1% antibiotics (Pe/St). […] 5% CO2. Thereafter, RNA extraction, cDNA preparation, and quantitative real-time PCR was performed by using TaqMan procedure.

d = 2'-deoxy (DNA); r = 2'-OH (RNA)

For the substance “as(dT5): GAPDH siRNA, sense SEQ ID NO: 1 with dT2, antisense SEQ ID NO: 5 with dT5 3′-overhang (sense CCGAGCCACAUCGCUCAGATT; antisense UCUGAGCGAUGUGGCUCGGTTTTT; sense: sugars from the 5' end r19 d2, backbone not given here; antisense: sugars from the 5' end r19 d5, backbone not given here)”, the GAPDH gene knockdown in the data set with GAPDH (carrier-free transfection) is on record as 20%. Also, in data set [1], the melting temperature (Tm) was 79.5 °C and the “Δ Tm” value was −1.7 °C.

For the substance “miR-34a: Natural miR-34a duplex, sense SEQ ID NO: 20, antisense SEQ ID NO: 21 (sense CAAUCAGCAAGUAUACUGCCCU; antisense UGGCAGUGUCUUAGCUGGUUGU; unmodified RNA) [reference compound]”, the figures for the Ctnnb1 expression result in the data set with Ctnnb1 (β-Catenin) (transfected with MaTra (FIG. 12)) and in the data set with Ctnnb1 (β-Catenin) (without transfection reagent MaTra (FIG. 12)) were “induced over expression of Ctnnb1” and “did not show any effect on the expression levels of Ctnnb1”, respectively.

For the substance “dC5: GAPDH siRNA, sense SEQ ID NO: 8 with dC5 3′-overhang, antisense SEQ ID NO: 2 with dT2 (sense CCGAGCCACAUCGCUCAGACCCCC; antisense UCUGAGCGAUGUGGCUCGGTT; sense: sugars from the 5' end r19 d5, backbone not given here; antisense: sugars from the 5' end r19 d2, backbone not given here)”, in data set [1], the Tm came out at 80.9 °C and the “Δ Tm” value is −0.3 °C.

The substance “bl(dT5): GAPDH siRNA, sense SEQ ID NO: 3 with dT5, blunt ended antisense SEQ ID NO: 11 without overhang (sense CCGAGCCACAUCGCUCAGATTTTT; antisense UCUGAGCGAUGUGGCUCGG; sense: sugars from the 5' end r19 d5, backbone not given here; antisense: RNA, backbone not given here)” returned a GAPDH gene knockdown in the data set with GAPDH (carrier-free transfection) of 60%. This substance also showed a decrease in activity with GAPDH (3′-dT2 of antisense strand removed, versus dT5) of 20%. Further, in data set [1], the Tm amounted to 79.1 °C and the “Δ Tm” value was −2.1 °C.

Take “dA5: GAPDH siRNA, sense SEQ ID NO: 6 with dA5 3′-overhang, antisense SEQ ID NO: 2 with dT2 (sense CCGAGCCACAUCGCUCAGAAAAAA; antisense UCUGAGCGAUGUGGCUCGGTT; sense: sugars from the 5' end r19 d5, backbone not given here; antisense: sugars from the 5' end r19 d2, backbone not given here)”: the “RNAi activity among different 5-nt candidates” value in the data set on GAPDH (FIG. 2B) is given as “highest RNAi activity”. Besides, the GAPDH gene knockdown in the data set with GAPDH (carrier-free transfection) is 80%. Further, in data set [1], the Tm stood at 79.6 °C, the “Δ Tm” value is −1.6 °C and the “drop in Tm” value is about 1.5 °C.

As for “(dT5)2: Symmetrical GAPDH siRNA, sense SEQ ID NO: 3 and antisense SEQ ID NO: 5, dT5 overhang at both 3′-ends (sense CCGAGCCACAUCGCUCAGATTTTT; antisense UCUGAGCGAUGUGGCUCGGTTTTT; sugars from the 5' end r19 d5, backbone not given here)”, in the data set on GAPDH (MATra-si transfection), the “enhancement in activity compared to canonical siRNA” value came to 10% and the GAPDH gene knockdown amounted to 70%. In the data set with GAPDH (carrier-free transfection), this substance returned a GAPDH gene knockdown of 65%. For the same substance, in data set [1], the Tm was found to be 80.1 °C, the “Δ Tm” value is −1.1 °C and the “drop in Tm” value is about 1 °C.

In the data set on GAPDH (carrier-free transfection), “rA5: GAPDH siRNA, sense SEQ ID NO: 9 with ribo A5 3′-overhang, antisense SEQ ID NO: 10 with U2 (sense CCGAGCCACAUCGCUCAGAAAAAA; antisense UCUGAGCGAUGUGGCUCGGUU; RNA, backbone not given here)” displayed a GAPDH gene knockdown of 60%. In data set [1], the Tm was 79.0 °C and the “Δ Tm” value is −2.2 °C.

In the case of “dG5: GAPDH siRNA, sense SEQ ID NO: 7 with dG5 3′-overhang, antisense SEQ ID NO: 2 with dT2 (sense CCGAGCCACAUCGCUCAGAGGGGG; antisense UCUGAGCGAUGUGGCUCGGTT; sense: sugars from the 5' end r19 d5, backbone not given here; antisense: sugars from the 5' end r19 d2, backbone not given here)”, in data set [1], the Tm is 79.2 °C, the “Δ Tm” value was −2.0 °C and the “drop in Tm” value is about 2 °C.

For orientation: Tm means the temperature at the midpoint of the melting transition.
